Assay [1] in a line: Binding affinity to alpha-chymotrypsin (unknown origin). As to conditions: Homo sapiens.
The nature of assay [2]: Binding affinity to alpha-chymotrypsin (unknown origin) assessed as hydrolysis. As to conditions: Homo sapiens.
Assay [3] can be described thus: Binding affinity to chymotrypsin (unknown origin) assessed as deacetylation. To be noted: Homo sapiens.
Assay [4] can be described thus: Binding affinity to chymotrypsin (unknown origin). To be noted: Homo sapiens.
Assay [5] can be described thus: Binding affinity to chymotrypsin (unknown origin) assessed as hydrolysis. To be noted: Homo sapiens.
Assay [6] in a line: Binding affinity to chymotrypsin (unknown origin) assessed as acetylation at pH 7. To be noted: Homo sapiens.
Assay [7] can be described thus: Inhibition of chymotrypsin (unknown origin). As to conditions: Homo sapiens.
Assay [8] can be described thus: Binding affinity to chymotrypsin (unknown origin) assessed as acetylation at pH 6. To be noted: Homo sapiens.

Description for Homo sapiens: Inhibition of alpha-chymotrypsin (unknown origin)

`CCc1ccccc1` gave a log1/Ki in the assay listed under Homo sapiens of 2.74.

The compound `COC(=O)CNS(C)(=O)=O` gave a log(1/Km) in [1] of 1.07. Besides, the logKcat in [2] was -1.92.

`CCC[C@H](NC(C)=O)C(=O)OC`: the figures for the log K in [3] and in assay [6] were 0.77 and 1.55, respectively. Further, in assay [4], the log(1/Km) is 1.99. Further, in assay [5], the logKcat turned out to be 0.43.

Consider `COC(=O)CNC(=O)C(Cl)Cl`, for which the log(1/Km) in assay [1] came out at 1.66. Also, the logKcat in assay [2] is -1.64.

As to `COC(=O)CNC(=O)CC(C)C`, the log(1/Km) in assay [1] is 1.62. Moreover, the logKcat in assay [2] is -1.6.

In turn, `c1ccc2cc3ccccc3cc2c1` returned a log1/Ki in the assay filed under Homo sapiens of 5.26.

`O=C(O)CCCc1ccccc1` showed a log1/Ki in assay [7] of 3.22.

With `CCOC(=O)[C@@H](NC(C)=O)C(C)C`, the log K in [3] was -0.68; in [6] it was -0.26. In addition, the log(1/Km) in assay [4] is 0.96. The logKcat in assay [5] is -0.88.

Regarding `CCOC(=O)CNC(C)=O`, the log(1/Km) in [4] worked out at 1.2. Moreover, the log K in assay [6] is -1.03. Besides, the logKcat in assay [2] was -1.42.

Take `CCc1ccc(C(=O)Oc2ccc([N+](=O)[O-])cc2)cc1`: the log K was found to be 3.87 in assay [8] and 3.97 in [6].

In turn, `COC(=O)CNC(=O)c1ccccn1` registered a log(1/Km) in assay [1] of 2. The logKcat in assay [2] amounted to 0.39.

With `O=C(Oc1ccc([N+](=O)[O-])cc1)c1ccccc1`, the log K is -3.69 in assay [3], 2.64 in assay [8] and 3.16 in assay [6].

As for `COc1ccc(C(=O)Oc2ccc([N+](=O)[O-])cc2[N+](=O)[O-])cc1`, the log K in assay [6] amounted to 4.96.

On to `COC(=O)CNC(=O)C(C)C`, for which the log(1/Km) in assay [1] is 1.34. Besides, the logKcat in assay [2] is -1.68.

As to `CCOC(=O)[C@H](Cc1ccc(O)cc1)NC(C)=O`, the log K in assay [3] is 2.3; in assay [6] it was 3.7. Also, the log(1/Km) in [4] amounted to 3.15. Moreover, the logKcat in [5] was found to be 2.28.

`CCOC(=O)NCC(=O)OC` gave a log(1/Km) in assay [1] of 1.19. In addition, the logKcat in assay [2] is -0.88.

Regarding `O=C(Oc1ccc([N+](=O)[O-])cc1[N+](=O)[O-])c1ccccc1`, the log K in [6] is 4.86.

With `Cc1ccc(C(=O)Oc2ccc([N+](=O)[O-])cc2)cc1`, the log K amounted to 2.85 in [8] and 3.31 in [6].

Consider `O=C(Oc1ccc([N+](=O)[O-])cc1[N+](=O)[O-])c1ccc(F)cc1`, for which the log K in [6] came to 4.83.

Consider `O=C(Oc1ccc([N+](=O)[O-])cc1[N+](=O)[O-])c1ccc(C(F)(F)F)cc1`, for which, in assay [6], the log K amounted to 6.4.

As to `CC(C)c1ccc(C(=O)Oc2ccc([N+](=O)[O-])cc2[N+](=O)[O-])cc1`, in assay [6], the log K worked out at 5.99.

As to `c1ccc2ccccc2c1`, the log1/Ki in the assay listed under Homo sapiens stood at 3.93.

`CC(=O)N[C@H](C(=O)OC(C)C)C(C)C`: the results for the log K in [3] and in assay [6] were -0.68 and -0.75, respectively. Besides, the log(1/Km) in [4] worked out at 0.75. Besides, in assay [5], the logKcat is -1.08.

For `O=C(Oc1ccc([N+](=O)[O-])cc1)c1ccc(Cl)cc1`, the log K in [3] was -3.48; in assay [8] it was 3.27; in [6] it was 3.56.

Consider `CCCC[C@H](NC(C)=O)C(=O)OC`, for which the log K in assay [3] came to 1.28; in assay [6] it was 2.01. This compound had a log(1/Km) in [4] of 2.17. Moreover, in assay [5], the logKcat amounted to 0.92.

In turn, `C1=Cc2ccccc2C1` yielded a log1/Ki in [7] of 3.67.

For the compound `CC(C)(C)c1ccc(C(=O)Oc2ccc([N+](=O)[O-])cc2)cc1`, the log K in [6] is 4.07.

Take `O=C(Oc1ccc([N+](=O)[O-])cc1[N+](=O)[O-])c1cccc(C(F)(F)F)c1`: the log K in assay [6] was found to be 5.47.

`O=C(Oc1ccc([N+](=O)[O-])cc1)c1ccc(C(F)(F)F)cc1`: the log K in assay [3] is -2.69; in [8] it was 3.41; in assay [6] it was 3.95.

In assay [1], `COC(=O)CNC(=O)c1ccccc1` came in with a log(1/Km) of 2.12. Besides, the logKcat in assay [5] is -0.9. For the same compound, the log K in assay [6] is -0.38.

Consider `COC(=O)CNC(=O)c1c[nH]c2ccccc12`, for which the log(1/Km) in assay [1] worked out at 2.86. In addition, the logKcat in assay [5] was -1.25.

As for `O=C(O)c1ccc2ccccc2c1`, in assay [7], the log1/Ki worked out at 3.86.

Consider `COC(=O)CNC(=O)c1cccnc1`, for which the log(1/Km) in [1] came to 1.5. Further, the logKcat in assay [2] is -0.34.

`O=C(O)c1ccccc1` had a log1/Ki in assay [7] of 1.99.

With `N#Cc1ccc(C(=O)Oc2ccc([N+](=O)[O-])cc2)cc1`, the log K in assay [8] is 3.35; in [6], 3.94.

For `COC(=O)CNC(=O)c1ccco1`, the log(1/Km) in [1] is 1.71. Further, the logKcat in assay [2] is -0.01.

As to `COC(=O)[C@H](Cc1ccccc1)NC(C)=O`, the log K was determined as 2.04 in assay [3] and 2.9 in [6]. Moreover, in assay [4], the log(1/Km) amounted to 2.9. In addition, the logKcat in [5] was found to be 1.72.

The compound `COC(=O)CNC(C)=O` came in with a log(1/Km) in assay [1] of 1.51. Besides, the log K in [6] is -0.31. The logKcat in assay [2] was -1.89.

In assay [7], `O=C(O)CCc1ccccc1` yielded a log1/Ki of 2.79.

Consider `CCCCC`, for which the log1/Ki in assay [7] was 2.25.

In the assay listed under Homo sapiens, `Cc1ccccc1` returned a log1/Ki of 2.55.

For `Cc1cccc(C(=O)Oc2ccc([N+](=O)[O-])cc2[N+](=O)[O-])c1`, the log K in [6] worked out at 4.75.

Regarding `CCOC(=O)[C@H](Cc1ccc(O)cc1)NC(=O)c1ccccc1`, the figures for the log K in assay [3] and in [6] were 2.12 and 2.4, respectively. This compound also returned a log(1/Km) in [4] of 4.66. Further, in [5], the logKcat is 1.93.

`Clc1ccccc1` displayed a log1/Ki in the assay listed under Homo sapiens of 3.09.

Consider `O=C(Oc1ccc([N+](=O)[O-])cc1[N+](=O)[O-])c1cccc(Cl)c1`, for which, in [6], the log K came to 5.47.

Regarding `O=C(Oc1ccc([N+](=O)[O-])cc1[N+](=O)[O-])c1cccc(F)c1`, the log K in assay [6] stood at 5.25.

`CCOC(=O)[C@H](C)NC(=O)c1ccccc1`: the log K in assay [3] is -0.22; in assay [6], -1.16. This compound came in with a log(1/Km) in assay [4] of 2.22. In addition, the logKcat in assay [5] is -1.16.

In turn, `Cc1cccc(C(=O)O)c1` returned a log1/Ki in assay [7] of 2.42.

On to `COC(=O)[C@@H](NC(C)=O)C(C)C`, for which the results for the log K in [3] and in assay [6] were -0.68 and -0.01, respectively. For the same compound, in [4], the log(1/Km) is 0.95. Also, the logKcat in [5] is -0.82.

Take `COC(=O)CNC(=O)c1ccc(N)cc1`: in assay [1], the log(1/Km) came out at 2.08. In addition, the logKcat in assay [2] was -1.39.

Turning to `COc1ccc(C(=O)Oc2ccc([N+](=O)[O-])cc2)cc1`, the log K in [3] is -4.39; in [8], 2.78; in assay [6], 2.97.

With `O=C(Oc1ccc([N+](=O)[O-])cc1)c1ccc([N+](=O)[O-])cc1`, the log K was -3.44 in [3], 3.55 in assay [8] and 3.96 in assay [6].

Regarding `Cc1ccc(C(=O)Oc2ccc([N+](=O)[O-])cc2[N+](=O)[O-])cc1`, the log K in assay [6] was determined as 5.22.

For `COC(=O)[C@H](Cc1ccc(O)cc1)NC(=O)c1ccccc1`, the log K worked out at 2.08 in assay [3] and 2.56 in assay [6]. Further, the log(1/Km) in assay [4] worked out at 4.74. Moreover, in assay [5], the logKcat was found to be 1.96.

In [1], `COC(=O)CNC(=O)C(F)(F)F` displayed a log(1/Km) of 1.27. The logKcat in [2] is -1.07.

Consider `COC(=O)[C@H](Cc1ccc(O)cc1)NC(C)=O`, for which the log(1/Km) in assay [1] worked out at 3.49. Further, the logKcat in assay [2] is 2.07.

As to `COC(=O)CNC(=O)c1ccncc1`, the log(1/Km) in assay [1] is 1.75. In [2], the logKcat is -0.8.

`O=C(Oc1ccc([N+](=O)[O-])cc1)c1cccc(Cl)c1`: the log K is 3.43 in [8] and 3.77 in assay [6].

Regarding `C1=CCCCC1`, the log1/Ki in assay [7] turned out to be 2.07.

In the case of `O=C(Oc1ccc([N+](=O)[O-])cc1)c1ccc(F)cc1`, the log K worked out at 2.74 in assay [8] and 3.11 in assay [6].

Take `O=C(Oc1ccc([N+](=O)[O-])cc1)c1cccc(C(F)(F)F)c1`: the log K came out at 3.22 in assay [8] and 3.59 in [6].

On to `CC[C@H](NC(=O)c1ccccc1)C(=O)OC`, for which the log K in [3] is 0.18; in assay [6], -0.39. Further, the log(1/Km) in [4] amounted to 2.85. In addition, the logKcat in [5] was -0.49.

As to `O=C(Oc1ccc([N+](=O)[O-])cc1)c1cccc(F)c1`, the log K was -0.35 in assay [3], 3.17 in assay [8] and 3.6 in [6].

In the case of `CCC[C@H](NC(=O)c1ccccc1)C(=O)OC`, the log K in assay [3] was determined as 0.77; in assay [6] it was 0.62. The log(1/Km) in [4] amounted to 3.07. Also, the logKcat in assay [5] is 0.39.

`COC(=O)CNC(=O)Cc1ccccc1` returned a log(1/Km) in assay [1] of 2.1. The logKcat in assay [2] is -2.22.

As to `CC[C@H](NC(C)=O)C(=O)OC`, the log K came out at 0.22 in assay [3] and 0.94 in assay [6]. This compound also had a log(1/Km) in assay [4] of 1.28. Also, the logKcat in [5] was found to be 0.02.

For `COC(=O)[C@@H](NC(=O)c1ccccc1)C(C)C`, the log K in assay [3] is -0.66; in [6] it was -1.04. The compound also displayed a log(1/Km) in assay [4] of 2.34. In addition, the logKcat in assay [5] was -1.19.

As to `CCC(=O)NCC(=O)OC`, the log(1/Km) in assay [1] turned out to be 1.42. For the same compound, the logKcat in assay [2] was -1.74.

On to `CCOC(=O)[C@H](Cc1ccccc1)NC(C)=O`, for which the figures for the log K in assay [3] and in assay [6] were 1.97 and 2.42, respectively. This compound gave a log(1/Km) in assay [4] of 2.96. The logKcat in [5] is 1.84.

Turning to `CC(C)(C)c1ccc(C(=O)O)cc1`, in assay [7], the log1/Ki was 3.89.

`CCSCC(=O)NCC(=O)OC` yielded a log(1/Km) in assay [1] of 1.98. Besides, the logKcat in assay [2] is -2.27.

For `COC(=O)CNC(=O)CCl`, in [1], the log(1/Km) was found to be 1.16. In addition, in assay [5], the logKcat is -1.26.

As for `COC(=O)[C@@H](NC(=O)CCl)C(C)C`, the log K is -0.68 in [3] and -0.49 in [6]. The compound also had a log(1/Km) in assay [4] of 1.37. Also, in assay [5], the logKcat was -0.9.

In the case of `O=[N+]([O-])c1ccccc1`, in the assay listed under Homo sapiens, the log1/Ki is 3.02.

For the compound `COC(=O)[C@H](Cc1ccccc1)NC(=O)c1ccccc1`, the figures for the log K in assay [3] and in assay [6] were 1.96 and 1.66, respectively. In assay [4], the log(1/Km) came to 4.46. Besides, the logKcat in assay [5] worked out at 1.49.

`Cc1ccc(C(=O)O)cc1`: the log1/Ki in assay [7] stood at 2.43.
